From article PMC10818749, “Toxicity Studies of Cardiac-Targeting Peptide Reveal a Robust Safety Profile” (Pharmaceutics, 2024)
Ends that are not written are not given here.

What was measured:
[1] = system: human left ventricular myocyte cell line; assay: Fluorescence-activated cell sorting (FACS) live-dead viability; assay type: cell-based; details: 10 µM, 30 min incubation, live-dead stain, biological triplicates and technical quadruplicates (n = 4), vs no treatment or vehicle
Protocol: Fluorescence-Activated Cell Sorting Assays: CTP was tested in a human left ventricular myocyte cell line (Celprogen, Torrance, CA, USA; cat #36044-15) for uptake and assessment of its effects on cell viability. Cells were plated onto 6-well plates at a density of 100,000 cells per well and incubated overnight at 37 °C/5% CO2. The following day media was replaced with fresh media containing 10 µM CTP-Cy5.5, or a random (RAN-CY5.5) peptide. A yellow live-dead stain (Invitrogen, Carlsbad, CA, USA; cat #L34968) was added to all wells, including the negative control or vehicle only treated controls, and cells were incubated for 30 min, after which media aspirated, cells washed 3× with pre-warmed phosphate-buffered saline (PBS), trypsinized, and collected. After collection, cells were washed once with PBS, fixed with 2% paraformaldehyde at room temperature for 10 min, washed once again and resuspended in 1000 µL of PBS. Fluorescence activated cell sorting (FACS) was performed using lasers selected for live-dead and Cy5.5 fluorophores, and 10,000 cells counted in Fortessa. The data generated were gated on the presence of the live-dead stain providing the percent viability of cells [(live/(live + dead cells)) × 100] after treatment with various peptides.

CHO-hERG = CHO-hERG (Homo sapiens, UniProt Q12809)
ADRB1 = molecular target: T1, ADRB1 (Homo sapiens, UniProt P08588); assay: ADRB1 GPCR cAMP modulation assay; assay type: cell-based; details: compared to the controls
T1 construct: host or cells: cAMP Hunter cell line
T1 sequence (P08588 whole entry): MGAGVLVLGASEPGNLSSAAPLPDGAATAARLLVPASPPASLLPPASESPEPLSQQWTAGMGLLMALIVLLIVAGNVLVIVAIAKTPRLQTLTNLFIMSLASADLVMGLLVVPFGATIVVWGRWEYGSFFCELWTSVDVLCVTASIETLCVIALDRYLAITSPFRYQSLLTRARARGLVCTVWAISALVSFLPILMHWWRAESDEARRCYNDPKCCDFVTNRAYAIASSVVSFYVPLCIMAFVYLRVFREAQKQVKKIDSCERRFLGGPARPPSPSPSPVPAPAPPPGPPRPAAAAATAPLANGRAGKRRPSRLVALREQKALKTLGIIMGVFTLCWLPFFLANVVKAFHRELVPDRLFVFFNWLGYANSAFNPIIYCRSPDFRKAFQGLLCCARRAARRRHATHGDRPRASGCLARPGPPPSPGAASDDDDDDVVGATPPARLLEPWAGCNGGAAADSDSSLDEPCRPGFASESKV
Protocol: GPCR cAMP Modulation Assays: cAMP Hunter cell lines were grown, plated, and subjected to Eurofins’ DiscoverX HitHunter cAMP XS+ assay. Gs agonist activity, Gi agonist activity, and antagonist activity-induced assays were read using chemiluminescent signal detection. The percentage of activity was calculated for Gs and Gi agonist assays, and the percentage of inhibition was calculated for Gs antagonist assays. […]
cAMP Second ary Messenger Assay pound results in the release of calcium from intracellular stores and DiscoverX has developed a panel of cell lines stably expressing non- an increase in dye fluorescence that is measured in real-time. tagged GPCRs that endogenously signal through cAMP. […]
The enzyme is split into two complementary portions: Enzyme Ac-ceptor (EA) and Enzyme Donor (ED). […] Active enzyme can then convert a chemilumines-cent substrate, generating an output signal detectable on a standard The NHR is tagged with the ProLink™ (PK) component of our EFC microplate reader. assay system, and the SRCP domain is fused to the Enzyme Ac-ceptor component (EA) expressed in the nucleus. […]

[2] = system: CD1, wild type, adult mice; assay: Cardiac MRI pre- and post-CTP injection; assay type: in vivo, mouse; details: male or female mice; immediately after CTP 150 µg/Kg i.v.; vs baseline
Protocol: Cardiac Function Studies, Pre- and Post-Injections: Six CD1, wild type, 6–8-week-old adult mice were obtained from the Charles River and used for cardiac MRI studies. Mice were weighed, anesthetized with 2.5% isoflurane, and ear tags removed before being inserted into the MRI scanner. A baseline cardiac MRI was performed, followed by intravenous CTP injection (150 µg/Kg). Post-injection, a second cardiac MRI was performed.

HEK-Cav1.2 = HEK-Cav1.2 (Homo sapiens, UniProt Q13936); details: CTP 0.1 to 30 µM; HEK cells; -100mV to +20mV; 0.1% Pluronic F-68
Sequence of HEK-Cav1.2 (Q13936 whole entry): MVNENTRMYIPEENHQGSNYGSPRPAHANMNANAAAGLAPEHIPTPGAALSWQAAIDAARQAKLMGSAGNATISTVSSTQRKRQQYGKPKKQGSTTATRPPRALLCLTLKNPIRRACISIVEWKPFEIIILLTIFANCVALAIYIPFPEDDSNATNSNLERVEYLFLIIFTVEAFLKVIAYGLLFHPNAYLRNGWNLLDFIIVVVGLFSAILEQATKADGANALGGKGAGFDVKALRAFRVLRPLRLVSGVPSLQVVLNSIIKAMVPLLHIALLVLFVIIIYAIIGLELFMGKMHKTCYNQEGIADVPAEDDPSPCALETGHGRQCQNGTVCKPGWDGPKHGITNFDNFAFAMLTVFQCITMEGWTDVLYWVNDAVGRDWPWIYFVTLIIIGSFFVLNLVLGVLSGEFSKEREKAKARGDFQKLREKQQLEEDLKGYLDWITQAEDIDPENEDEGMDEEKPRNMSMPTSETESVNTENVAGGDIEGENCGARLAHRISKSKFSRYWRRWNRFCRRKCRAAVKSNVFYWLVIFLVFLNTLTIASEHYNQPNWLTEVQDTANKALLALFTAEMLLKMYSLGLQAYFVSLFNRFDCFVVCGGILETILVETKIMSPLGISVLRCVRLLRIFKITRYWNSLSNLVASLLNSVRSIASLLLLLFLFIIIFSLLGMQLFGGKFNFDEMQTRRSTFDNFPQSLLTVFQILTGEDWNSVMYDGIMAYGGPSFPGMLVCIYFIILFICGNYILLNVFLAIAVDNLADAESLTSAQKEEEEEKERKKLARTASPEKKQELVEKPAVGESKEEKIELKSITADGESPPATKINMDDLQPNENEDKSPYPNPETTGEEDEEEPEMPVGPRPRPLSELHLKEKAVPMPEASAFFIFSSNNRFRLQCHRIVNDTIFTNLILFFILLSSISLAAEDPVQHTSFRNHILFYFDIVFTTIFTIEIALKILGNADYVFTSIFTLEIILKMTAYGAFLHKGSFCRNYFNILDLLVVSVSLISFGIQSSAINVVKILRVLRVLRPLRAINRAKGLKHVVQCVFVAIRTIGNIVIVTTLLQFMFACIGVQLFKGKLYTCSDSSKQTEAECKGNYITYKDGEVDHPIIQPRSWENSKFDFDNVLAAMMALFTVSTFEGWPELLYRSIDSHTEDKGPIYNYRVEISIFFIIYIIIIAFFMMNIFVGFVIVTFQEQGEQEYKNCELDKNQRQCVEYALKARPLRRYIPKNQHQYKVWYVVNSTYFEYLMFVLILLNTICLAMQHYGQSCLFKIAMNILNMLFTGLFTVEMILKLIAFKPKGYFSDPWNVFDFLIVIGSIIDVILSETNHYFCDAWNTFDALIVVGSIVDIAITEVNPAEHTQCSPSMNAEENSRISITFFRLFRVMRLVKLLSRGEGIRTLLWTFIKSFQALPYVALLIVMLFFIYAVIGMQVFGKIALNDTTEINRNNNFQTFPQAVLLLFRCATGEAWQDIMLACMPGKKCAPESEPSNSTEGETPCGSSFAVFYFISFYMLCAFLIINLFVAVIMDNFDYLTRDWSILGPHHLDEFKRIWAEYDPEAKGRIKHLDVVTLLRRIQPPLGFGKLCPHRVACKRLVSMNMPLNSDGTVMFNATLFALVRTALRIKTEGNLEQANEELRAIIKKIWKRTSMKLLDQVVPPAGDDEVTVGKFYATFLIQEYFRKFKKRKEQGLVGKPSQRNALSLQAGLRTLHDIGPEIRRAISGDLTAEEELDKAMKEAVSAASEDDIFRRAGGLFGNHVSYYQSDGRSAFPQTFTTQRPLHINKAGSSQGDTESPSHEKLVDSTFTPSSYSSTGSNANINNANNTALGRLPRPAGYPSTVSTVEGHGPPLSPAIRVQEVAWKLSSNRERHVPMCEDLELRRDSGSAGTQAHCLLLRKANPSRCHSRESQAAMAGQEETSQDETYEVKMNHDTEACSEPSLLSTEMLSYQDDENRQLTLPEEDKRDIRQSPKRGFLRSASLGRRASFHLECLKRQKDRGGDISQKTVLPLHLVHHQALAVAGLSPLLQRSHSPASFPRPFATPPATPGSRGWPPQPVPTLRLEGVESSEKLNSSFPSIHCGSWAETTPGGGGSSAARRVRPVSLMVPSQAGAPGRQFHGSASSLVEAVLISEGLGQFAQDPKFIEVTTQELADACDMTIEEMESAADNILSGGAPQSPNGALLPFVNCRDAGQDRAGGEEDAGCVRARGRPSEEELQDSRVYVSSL
Sequence of HEK-Cav1.2 (Q08289 whole entry partner): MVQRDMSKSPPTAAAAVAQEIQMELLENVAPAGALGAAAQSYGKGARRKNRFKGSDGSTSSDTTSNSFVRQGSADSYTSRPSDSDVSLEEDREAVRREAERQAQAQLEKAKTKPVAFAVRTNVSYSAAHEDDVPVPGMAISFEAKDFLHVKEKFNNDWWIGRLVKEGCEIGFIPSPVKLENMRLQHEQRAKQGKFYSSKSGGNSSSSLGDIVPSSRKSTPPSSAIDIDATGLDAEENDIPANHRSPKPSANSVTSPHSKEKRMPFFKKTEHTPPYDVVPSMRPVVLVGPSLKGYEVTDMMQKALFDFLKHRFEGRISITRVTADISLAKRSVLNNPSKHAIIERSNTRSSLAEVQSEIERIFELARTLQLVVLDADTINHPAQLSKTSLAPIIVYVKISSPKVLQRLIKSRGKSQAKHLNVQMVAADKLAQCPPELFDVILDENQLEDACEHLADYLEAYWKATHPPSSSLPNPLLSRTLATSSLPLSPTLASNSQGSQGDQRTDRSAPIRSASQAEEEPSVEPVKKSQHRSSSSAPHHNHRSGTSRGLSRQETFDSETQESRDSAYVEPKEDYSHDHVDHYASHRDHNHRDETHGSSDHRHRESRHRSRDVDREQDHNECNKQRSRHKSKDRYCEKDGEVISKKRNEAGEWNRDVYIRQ
Sequence of HEK-Cav1.2 (P54289 25-946 partner limits assumed): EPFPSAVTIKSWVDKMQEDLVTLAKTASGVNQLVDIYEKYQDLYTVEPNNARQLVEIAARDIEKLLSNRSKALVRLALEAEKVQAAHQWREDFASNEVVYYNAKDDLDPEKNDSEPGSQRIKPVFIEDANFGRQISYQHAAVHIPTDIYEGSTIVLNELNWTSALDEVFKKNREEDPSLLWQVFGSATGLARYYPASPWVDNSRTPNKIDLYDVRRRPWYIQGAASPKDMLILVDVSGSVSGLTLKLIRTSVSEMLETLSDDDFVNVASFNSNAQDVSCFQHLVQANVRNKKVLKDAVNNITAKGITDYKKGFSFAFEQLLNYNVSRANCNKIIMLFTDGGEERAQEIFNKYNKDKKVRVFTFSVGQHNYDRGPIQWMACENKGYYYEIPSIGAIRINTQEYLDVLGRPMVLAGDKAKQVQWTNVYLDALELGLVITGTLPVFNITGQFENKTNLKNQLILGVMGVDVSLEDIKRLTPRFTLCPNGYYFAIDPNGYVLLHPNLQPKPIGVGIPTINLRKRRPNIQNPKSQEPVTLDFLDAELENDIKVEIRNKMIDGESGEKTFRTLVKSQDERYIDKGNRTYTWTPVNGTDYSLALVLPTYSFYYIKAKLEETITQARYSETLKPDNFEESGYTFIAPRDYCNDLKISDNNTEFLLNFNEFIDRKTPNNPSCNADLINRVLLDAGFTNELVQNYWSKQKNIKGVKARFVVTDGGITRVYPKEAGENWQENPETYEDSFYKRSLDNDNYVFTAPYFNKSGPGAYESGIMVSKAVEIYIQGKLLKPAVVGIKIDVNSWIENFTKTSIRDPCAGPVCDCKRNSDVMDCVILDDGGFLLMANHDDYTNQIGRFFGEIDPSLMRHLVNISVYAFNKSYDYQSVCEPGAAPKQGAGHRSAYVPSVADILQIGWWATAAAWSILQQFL
Sequence of HEK-Cav1.2 (P54289 947-1103 partner limits assumed): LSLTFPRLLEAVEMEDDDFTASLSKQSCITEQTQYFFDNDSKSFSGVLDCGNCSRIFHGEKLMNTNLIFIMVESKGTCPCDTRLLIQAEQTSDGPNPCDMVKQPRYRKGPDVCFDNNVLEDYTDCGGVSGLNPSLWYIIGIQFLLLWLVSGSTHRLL

HEK-Nav1.5 (Peak) = HEK-Nav1.5 (Peak) (Homo sapiens, UniProt Q14524); assay: hNav1.5 (Peak) Sodium Channel Assay - Qube APC; details: CTP 0.1 to 30 µM; HEK cells; peak current, step to -15mV; 0.1% Pluronic F-68
CHO-KCNQ1/minK = CHO-KCNQ1/minK (Homo sapiens, UniProt P15382+P51787); details: CTP 0.1 to 30 µM; CHO cells; step to +60mV; 0.1% Pluronic F-68

APWHLSSQYSRT [CTP]
cell viability [1]: remained unchanged | Estimated IC50 (CHO-hERG): N/C (key: N/C: Not calculable, inhibition >25% was not observed.) | agonist or antagonist action (ADRB1): no significant action as either an agonist or antagonist | cardiac output [2]: no significant change | ejection fraction [2]: no significant change | heart rate [2]: no significant change | left ventricular mass [2]: no significant change | Estimated IC50 (HEK-Cav1.2): N/C (Not calculable, inhibition >25% was not observed.) | Estimated IC50 (HEK-Nav1.5 (Peak)): N/C (Not calculable, inhibition >25% was not observed.) | Estimated IC50 (CHO-KCNQ1/minK): N/C (Not calculable, inhibition >25% was not observed.)
